The values below come from US8227612B2, “Quinoline compound and pharmaceutical composition, preparation method and uses thereof” (Shanghai Institute of Pharmaceutical Industry, priority 2008, dated 2012).

The test system of this assay is hyperlipidemia quail. Nature of the assay: Lipid-lowering in vivo experiments in hyperlipidemia quail. The conditions noted are these: for CHO / H/L / HDL-C / LDL-C / TG: oral, blood after four weeks hypercholesterol diet. As to the method:
Lipid-lowering in vivo experiments are made in hyperlipidemia quail with the compounds [NT] according to the present invention. Atorvastatin (20 mg/kg) were used as the positive control. Two groups of dosage (Low: 5 mg/kg, High: 20 mg/kg) of the ten compounds of [NT] were tested. After one week feeding with normal diet, except for the normal control group, the model control group and the tested groups of quails were fed with hypercholesterol diet for four weeks, and then the blood was collected respectively for testing the content of […] including triglyceride, cholesterol, low density lipoprotein and high density lipoprotein.

Setting [1] is: oral administration, hyperlipidemia quail.

In the case of `CC(C)c1c(C(=O)Nc2ccccc2)c(-c2ccccc2)c(-c2ccc(F)cc2)n1CC[C@@H](O)C[C@@H](O)CC(=O)O` [Atorvastatin, reference compound], under “High: 20 mg/kg”, the CHO came out at 6.51 mmol/L, the H/L is 2.19, the HDL-C is 4.39 mmol/L and the LDL-C was determined as 2.51 mmol/L. The same compound showed a TG (High: 20 mg/kg) of 0.76 mmol/L.
Where the note is “High: 20 mg/kg”, `CC(C)Sc1ccc(-c2cc3c(-c4ccc(SC(C)C)cc4)c(/C=C/[C@@H](O)C[C@@H](O)CC(=O)O)cnc3c(-c3ccc(SC(C)C)cc3)c2-c2ccc(SC(C)C)cc2)cc1` [Compound A1, (3R,5S)-7-[4,6,7,8-tetra-(4-isopropylthiophenyl)quinoline-3-yl]-3,5-dihydroxy-6(E)-heptenoic acid] displayed a CHO of 8.05 mmol/L, a H/L of 1.54, an HDL-C of 5.31 mmol/L and an LDL-C of 3.63 mmol/L. Besides, the TG (High: 20 mg/kg) was found to be 0.51 mmol/L. For the setting “Low: 5 mg/kg”, the CHO came out at 8.72 mmol/L, the H/L is reported as 1.91, the HDL-C is listed as 5.84 mmol/L and the LDL-C was determined as 3.99 mmol/L. Also, the TG (Low: 5 mg/kg) came out at 0.59 mmol/L. Moreover, the “lipid-lowering effect (in words)” value under setting [1] was “obvious lipid-lowering effect”.
For the setting “High: 20 mg/kg”, `COc1cccc(Sc2cc3ncc(/C=C/[C@@H](O)C[C@@H](O)CC(=O)[O-])c(Sc4cccc(OC)c4)c3cc2F)c1.COc1cccc(Sc2cc3ncc(/C=C/[C@@H](O)C[C@@H](O)CC(=O)[O-])c(Sc4cccc(OC)c4)c3cc2F)c1.[Ca+2]` [Compound A5] yielded a CHO of 10.55 mmol/L, a H/L of 1.06, an HDL-C of 5.35 mmol/L and an LDL-C of 6.40 mmol/L. This compound also displayed a TG (High: 20 mg/kg) of 0.58 mmol/L. Further, for the setting “Low: 5 mg/kg”, the CHO is 9.66 mmol/L, the H/L was determined as 1.29, the HDL-C came to 5.35 mmol/L and the LDL-C amounted to 5.07 mmol/L. For the setting “Low: 5 mg/kg”, this compound yielded a TG of 1.95 mmol/L. Under setting [1], the “lipid-lowering effect (in words)” value was “obvious lipid-lowering effect”.
As for `CC(C)Sc1ccc(-c2c(/C=C/[C@@H](O)C[C@@H](O)CC(=O)[O-])cnc3c(F)c(F)c(F)cc23)cc1.CC(C)Sc1ccc(-c2c(/C=C/[C@@H](O)C[C@@H](O)CC(=O)[O-])cnc3c(F)c(F)c(F)cc23)cc1.[Ca+2]` [Compound A6, (3R,5S)-7-[6,7,8-trifluoro-4-(4-isopropylthiophenyl)quinoline-3-yl]-3,5-dihydroxy-6(E)-heptenoic acid hemi calcium salt], where the note is “High: 20 mg/kg”, the CHO was found to be 8.66 mmol/L, the H/L is on record as 1.37, the HDL-C was found to be 4.74 mmol/L and the LDL-C was 3.66 mmol/L. The compound further returned a TG (High: 20 mg/kg) of 4.47 mmol/L. Under “Low: 5 mg/kg”, this compound yielded a CHO of 8.65 mmol/L, a H/L of 1.21, an HDL-C of 4.89 mmol/L and an LDL-C of 4.61 mmol/L. For the same compound, the TG (Low: 5 mg/kg) came to 0.70 mmol/L. Also, the “lipid-lowering effect (in words)” value under setting [1] is reported as “obvious lipid-lowering effect”.
Under “High: 20 mg/kg”, `O=C([O-])C[C@H](O)C[C@H](O)/C=C/c1cnc2c(F)c(F)c(F)cc2c1Sc1ccc(F)cc1.O=C([O-])C[C@H](O)C[C@H](O)/C=C/c1cnc2c(F)c(F)c(F)cc2c1Sc1ccc(F)cc1.[Ca+2]` [Compound A8] had a CHO of 5.57 mmol/L, a H/L of 2.21, an HDL-C of 3.73 mmol/L and an LDL-C of 1.94 mmol/L. Besides, the TG (High: 20 mg/kg) came out at 0.45 mmol/L. Where the note is “Low: 5 mg/kg”, this compound gave a CHO of 9.11 mmol/L, a H/L of 1.58, an HDL-C of 4.75 mmol/L and an LDL-C of 3.46 mmol/L. This compound returned a TG (Low: 5 mg/kg) of 1.50 mmol/L. The “lipid-lowering effect (in words)” value under setting [1] is listed as “obvious lipid-lowering effect”.
With `O=C([O-])C[C@H](O)C[C@H](O)/C=C/c1cnc2c(Oc3ccccc3)c(Oc3ccccc3)c(Oc3ccccc3)cc2c1Oc1ccccc1.O=C([O-])C[C@H](O)C[C@H](O)/C=C/c1cnc2c(Oc3ccccc3)c(Oc3ccccc3)c(Oc3ccccc3)cc2c1Oc1ccccc1.[Ca+2]` [Compound A9, (3R,5S)-7-[4,6,7,8-tetra-phenoxyquinoline-3-yl]-3,5-dihydroxy-6(E)-heptenoic acid hemi calcium salt], where the note is “High: 20 mg/kg”, the CHO was 9.18 mmol/L, the H/L is listed as 1.54, the HDL-C was 4.98 mmol/L and the LDL-C is recorded as 4.08 mmol/L. The TG (High: 20 mg/kg) came to 1.26 mmol/L. Under “Low: 5 mg/kg”, this compound registered a CHO of 9.75 mmol/L, a H/L of 1.56, an HDL-C of 4.98 mmol/L and an LDL-C of 5.16 mmol/L. The same compound displayed a TG (Low: 5 mg/kg) of 1.24 mmol/L. For the same compound, under setting [1], the “lipid-lowering effect (in words)” value is listed as “obvious lipid-lowering effect”.
For the compound `COc1cccc(Sc2c(/C=C/[C@@H](O)C[C@@H](O)CC(=O)[O-])cnc3cc(Cl)c(F)cc23)c1.COc1cccc(Sc2c(/C=C/[C@@H](O)C[C@@H](O)CC(=O)[O-])cnc3cc(Cl)c(F)cc23)c1.[Ca+2]` [Compound A11], for the setting “High: 20 mg/kg”, the CHO worked out at 8.53 mmol/L, the H/L stood at 1.33, the HDL-C came out at 5.06 mmol/L and the LDL-C is 4.30 mmol/L. The TG (High: 20 mg/kg) came to 0.42 mmol/L. For the setting “Low: 5 mg/kg”, this compound displayed a CHO of 11.63 mmol/L, a H/L of 1.24, an HDL-C of 6.32 mmol/L and an LDL-C of 6.51 mmol/L. This compound also had a TG (Low: 5 mg/kg) of 0.56 mmol/L. For the same compound, under setting [1], the “lipid-lowering effect (in words)” value is on record as “obvious lipid-lowering effect”.
For the compound `O=C([O-])C[C@H](O)C[C@H](O)/C=C/c1cnc2c(F)c(Oc3ccccc3)c(F)cc2c1Oc1ccccc1.O=C([O-])C[C@H](O)C[C@H](O)/C=C/c1cnc2c(F)c(Oc3ccccc3)c(F)cc2c1Oc1ccccc1.[Ca+2]` [Compound A12, (3R,5S)-7-[6,8-difluoro-4,7-di-(phenoxy)quinoline-3-yl]-3,5-dihydroxy-6(E)-heptenoic acid hemi calcium salt], where the note is “High: 20 mg/kg”, the CHO is listed as 6.25 mmol/L, the H/L stood at 2.11, the HDL-C stood at 3.77 mmol/L and the LDL-C worked out at 2.52 mmol/L. Under “High: 20 mg/kg”, this compound registered a TG of 0.97 mmol/L. Further, where the note is “Low: 5 mg/kg”, the CHO came out at 12.40 mmol/L, the H/L is reported as 1.43, the HDL-C was found to be 6.21 mmol/L and the LDL-C is recorded as 6.75 mmol/L. The compound also yielded a TG (Low: 5 mg/kg) of 0.54 mmol/L. Further, under setting [1], the “lipid-lowering effect (in words)” value was “obvious lipid-lowering effect”.
For the setting “High: 20 mg/kg”, `CC(C)c1ccc(Sc2cc3ncc(/C=C/[C@@H](O)C[C@@H](O)CC(=O)[O-])c(Sc4ccc(C(C)C)cc4)c3cc2F)cc1.CC(C)c1ccc(Sc2cc3ncc(/C=C/[C@@H](O)C[C@@H](O)CC(=O)[O-])c(Sc4ccc(C(C)C)cc4)c3cc2F)cc1.[Ca+2]` [Compound A13] showed a CHO of 8.88 mmol/L, a H/L of 1.79, an HDL-C of 5.64 mmol/L and an LDL-C of 3.95 mmol/L. Under “High: 20 mg/kg”, the TG stood at 0.35 mmol/L. In addition, for the setting “Low: 5 mg/kg”, the CHO was 14.13 mmol/L, the H/L is reported as 0.92, the HDL-C is on record as 6.93 mmol/L and the LDL-C turned out to be 9.23 mmol/L. The TG (Low: 5 mg/kg) is on record as 0.56 mmol/L. Under setting [1], the “lipid-lowering effect (in words)” value is listed as “obvious lipid-lowering effect”; the “way of reducing lipidemia (in words)” value was “reduces lipidemia by lowering TG and increasing H/L ratio”.
In the case of `O=C([O-])C[C@H](O)C[C@H](O)/C=C/c1cnc2cc(Cl)c(F)cc2c1Oc1ccc(F)cc1.O=C([O-])C[C@H](O)C[C@H](O)/C=C/c1cnc2cc(Cl)c(F)cc2c1Oc1ccc(F)cc1.[Ca+2]` [Compound A14, (3R,5S)-7-[6-fluoro-7-chloro-4-(4-fluorophenoxy)quinoline-3-yl]-3,5-dihydroxy-6(E)-heptenoic acid hemi calcium salt], under “High: 20 mg/kg”, the CHO was determined as 7.61 mmol/L, the H/L is 1.44, the HDL-C is 4.66 mmol/L and the LDL-C is given as 3.62 mmol/L. In addition, the TG (High: 20 mg/kg) amounted to 0.96 mmol/L. Under “Low: 5 mg/kg”, this compound came in with a CHO of 11.64 mmol/L, a H/L of 1.15, an HDL-C of 6.63 mmol/L and an LDL-C of 6.40 mmol/L. Also, for the setting “Low: 5 mg/kg”, the TG is listed as 0.74 mmol/L. Besides, the “lipid-lowering effect (in words)” value under setting [1] was “obvious lipid-lowering effect”.
